We go through 56 compounds from patent US20080090805A1, “CB-1 MODULATING COMPOUNDS AND THEIR USE” (ACADIA PHARMACEUTICALS INC., priority 2005, published 2008).

The target in this assay is CB1 (mutant) (Homo sapiens, UniProt P21554). The assay can be described thus: R-SAT functional receptor assay, CB1 (mutant, truncated after amino acid 417). As to conditions: R-SAT CB1; for IC50 / pIC50: receptor form (mutant or wild-type) not stated; for Emax / % Inhibition: receptor form not stated, relative to SR141716 (100%). The class given is cell-based.
CB1 (mutant), sequence (P21554 1-417, change not shown): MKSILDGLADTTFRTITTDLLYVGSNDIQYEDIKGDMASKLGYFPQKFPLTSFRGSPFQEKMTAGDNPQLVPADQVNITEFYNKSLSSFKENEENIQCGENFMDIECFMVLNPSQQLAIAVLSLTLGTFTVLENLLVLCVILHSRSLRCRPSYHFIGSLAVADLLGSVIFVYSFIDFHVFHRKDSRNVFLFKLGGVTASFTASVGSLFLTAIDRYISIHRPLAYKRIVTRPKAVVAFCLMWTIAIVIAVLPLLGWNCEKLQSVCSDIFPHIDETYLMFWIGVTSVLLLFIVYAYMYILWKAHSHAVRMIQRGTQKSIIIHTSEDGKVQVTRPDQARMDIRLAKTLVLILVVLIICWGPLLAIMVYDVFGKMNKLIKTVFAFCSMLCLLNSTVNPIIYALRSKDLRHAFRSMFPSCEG
The mark [1] stands for this setting: Appendix A, read-out: pIC50 (converted).
Setting [2] is: Appendix A, read-out: % Inhibition.

By pIC50 is commonly meant the negative decadic logarithm of the IC50, by convention in mol/L. By % Inhibition is commonly meant the drop in the measured response relative to a control, in per cent.

Read-outs that look alike come from different tables or passages of the source.

Take `O=C(NCCC(F)(F)F)c1ccc2c(c1)N=C(c1ccc(Cl)s1)c1ccccc1S2` [drawing 663]: under setting [1], the IC50 was 6.31 nM. Moreover, the Emax under setting [2] was 95%.
Consider `CC(C)NC(=O)c1ccc2c(c1)N=C(c1ccc(Cl)cc1F)c1ccccc1S2` [drawing 664], for which the IC50 under setting [1] was 63.1 nM. Besides, the Emax under setting [2] turned out to be 101%.
For the compound `CCCCNC(=O)c1ccc2c(c1)N=C(c1ccc(Cl)c(Cl)c1)c1ccccc1S2` [drawing 665], where the note is “read-out: % Inhibition, Appendix A”, the Emax is 109%.
`CCCCNC(=O)c1ccc2c(c1)N=C(c1ccc(Cl)cc1)c1ccccc1[S+]2[O-]` (stereo not shown) [drawing 666]: under setting [1], the IC50 is 63.1 nM. Further, the Emax under setting [2] stood at 97%.
For `O=C(NCCC(F)(F)F)c1ccc2c(c1)N=C(c1ccc(Cl)cc1F)c1ccccc1S2` [drawing 667], in that order: 6.31 nM and 100%.
`O=C(NCc1cccnc1)c1ccc2c(c1)N=C(c1ccc(Cl)c(Cl)c1)c1ccccc1S2` [drawing 669]: the IC50 under setting [1] was 6.31 nM. Also, the Emax under setting [2] was determined as 107%.
`O=C(NCc1cccc(Cl)c1)c1ccc2c(c1)N=C(c1ccc(F)cc1)c1ccccc1[S+]2[O-]` (stereo not shown) [drawing 670]: under setting [2], the Emax was 89%.
Turning to `CC(C)CCNC(=O)c1ccc2c(c1)N=C(c1cccc(F)c1)c1ccccc1S2` [drawing 671], the Emax under setting [2] amounted to 100%. Moreover, the IC50 (pIC50, Appendix A) was 6.31 nM.
Take `O=C(NC1CCCC1)c1ccc2c(c1)N=C(c1ccc(Cl)c(Cl)c1)c1ccccc1S2` [drawing 672]: under setting [1], the IC50 was 63.1 nM. Moreover, the Emax under setting [2] was found to be 95%.
For the compound `O=C(NCCc1ccc(Cl)cc1)c1ccc2c(c1)N=C(c1ccc(F)cc1)c1ccccc1S2` [drawing 673], the IC50 under setting [1] is 6.31 nM. In addition, under setting [2], the Emax is 107%.
Turning to `CC(NC(=O)c1ccc2c(c1)N=C(C1CCCCC1)c1ccccc1S2)c1ccccc1` (stereo not shown) [drawing 674], under “Appendix A”, the pIC50 stood at 7.2 and the “% Inhibition” value came to 113%.
As for `CCCNC(=O)c1ccc2c(c1)N=C(c1ccc(Cl)s1)c1ccccc1S2` [drawing 675], the IC50 under setting [1] is 6.31 nM. Moreover, the Emax under setting [2] amounted to 88%.
As to `CCOC(=O)N1CCC(NC(=O)c2ccc3c(c2)N=C(c2ccc(Cl)cc2)c2ccccc2S3)CC1` [drawing 676], the IC50 under setting [1] was 63.1 nM. The “% Inhibition” value (Appendix A) is on record as 105%.
In the case of `CC(C)CNC(=O)c1ccc2c(c1)N=C(c1ccc(F)cc1)c1ccccc1S2` [drawing 677], under setting [1], the IC50 was 6.31 nM. Moreover, the Emax under setting [2] turned out to be 107%.
For the compound `O=C(NNCC(F)(F)F)c1ccc2c(c1)N=C(c1cccc(Cl)c1)c1ccccc1S2` [drawing 678], the IC50 under setting [1] is 63.1 nM. In addition, the Emax under setting [2] stood at 99%.
Regarding `O=C(NCc1cccc(Cl)c1)c1ccc2c(c1)N=C(N1CCC(F)CC1)c1ccccc1S2` [drawing 679], the IC50 under setting [1] was 6.31 nM. The Emax under setting [2] was 108%.
With `O=C(NN1CCCCC1)c1ccc2c(c1)N=C(c1ccc(F)cc1)c1ccccc1S2` [drawing 680], the Emax under setting [2] is 84%.
With `O=C(NCc1ccccc1)c1ccc2c(c1)N=C(N1CCCCC1)c1ccccc1S2` [drawing 681], the IC50 under setting [1] was 6.31 nM. Under setting [2], the Emax was determined as 110%.
`CCCCNC(=O)c1ccc2c(c1)N=C(N1CCCCC1)c1ccccc1S2` [drawing 683]: the IC50 under setting [1] was 6.31 nM. Also, the Emax under setting [2] turned out to be 99%.
In the case of `Cc1ccsc1C1=Nc2cc(C(=O)NC(C)C)ccc2Sc2ccccc21` [drawing 684], the IC50 under setting [1] is 63.1 nM. Moreover, under setting [2], the Emax was 95%.
Take `Cc1ccsc1C1=Nc2cc(C(=O)NCc3cccs3)ccc2Sc2ccccc21` [drawing 685]: the IC50 under setting [1] is 6.31 nM. The Emax under setting [2] is 114%.
On to `O=C(NCc1cccnc1)c1ccc2c(c1)N=C(c1ccc(Cl)c(Cl)c1)c1ccccc1S2` [drawing 687], for which, for the setting “Appendix A”, the pIC50 is listed as 8.2 and the “% Inhibition” value was 114%.
On to `O=C(NCc1ccco1)c1ccc2c(c1)N=C(c1ccc(F)cc1)c1ccccc1S2` [drawing 689], for which the IC50 under setting [1] was 6.31 nM. Further, the Emax under setting [2] is 104%.
`O=C(NCc1ccco1)c1ccc2c(c1)N=C(c1ccc(Cl)c(Cl)c1)c1ccccc1S2` [drawing 691]: the IC50 under setting [1] is 6.31 nM. Moreover, the Emax under setting [2] is 97%.
`O=C(NCc1ccco1)c1ccc2c(c1)N=C(c1cccc(F)c1)c1ccccc1S2` [drawing 693]: under setting [2], the Emax came to 104%. Also, the IC50 (pIC50, Appendix A) is 6.31 nM.
For the compound `Cc1ccsc1C1=Nc2cc(C(=O)NCCc3cccnc3)ccc2Sc2ccccc21` [drawing 694], the IC50 under setting [1] is 63.1 nM. Further, the Emax under setting [2] worked out at 121%.
For `O=C(NCc1ccncc1)c1ccc2c(c1)N=C(c1ccc(Cl)cc1)c1ccccc1S2` [drawing 696], in that order: 79.4 nM and 105%.
For the compound `O=C(NN1CCCCCC1)c1ccc2c(c1)N=C(c1cccc(F)c1)c1ccccc1S2` [drawing 697], the Emax under setting [2] amounted to 106%. For the same compound, the IC50 (pIC50, Appendix A) was 7.94 nM.
Regarding `O=C(NN1CCCC1)c1ccc2c(c1)N=C(c1ccc(Cl)cc1)c1ccccc1S2` [drawing 698], the IC50 under setting [1] was 79.4 nM. Besides, under setting [2], the Emax turned out to be 100%.
On to `O=C(NC1CCC(F)(F)CC1)c1ccc2c(c1)N=C(c1cccc(Cl)c1)c1ccccc1S2` [drawing 699], for which the Emax under setting [2] is 91%. For the setting “pIC50, Appendix A”, the IC50 was 7.94 nM.
For the compound `O=C(NCc1ccccc1Br)c1ccc2c(c1)N=C(c1ccccc1)c1ccccc1S2` [drawing 700], the IC50 under setting [1] was 79.4 nM. In addition, the Emax under setting [2] amounted to 83%.
Consider `O=C(NCc1cccc(Cl)c1)c1ccc2c(c1)N=C(c1ccc(F)cc1)c1ccccc1S2` [drawing 701], for which the IC50 under setting [1] is 7.94 nM. The Emax under setting [2] is 103%.
Consider `O=C(NC1CCCC1)c1ccc2c(c1)N=C(c1cccc(Cl)c1)c1ccccc1S2` [drawing 702], for which, under setting [1], the IC50 is 79.4 nM. Further, the Emax under setting [2] turned out to be 96%.
With `CC(C)CNC(=O)c1ccc2c(c1)N=C(c1ccc(Cl)s1)c1ccc(F)cc1S2` [drawing 703], under setting [1], the IC50 was 7.94 nM. The Emax under setting [2] stood at 117%.
With `O=C(NCCC(F)(F)F)c1ccc2c(c1)N=C(c1ccc(Cl)cc1)c1ccccc1S2` [drawing 705], the Emax under setting [2] was found to be 91%. Further, the IC50 (pIC50, Appendix A) was 7.94 nM.
In the case of `COc1cccc(C2=Nc3cc(C(=O)NCCC(F)(F)F)ccc3Sc3ccccc32)n1` [drawing 707], the IC50 under setting [1] is 7.94 nM. Further, the Emax under setting [2] turned out to be 104%.
As to `CCCCNC(=O)c1ccc2c(c1)N=C(c1ccc(F)cn1)c1ccccc1S2` [drawing 709], the IC50 under setting [1] was 7.94 nM. Further, the Emax under setting [2] stood at 101%.
Regarding `CC(C)CNC(=O)c1ccc2c(c1)N=C(c1ccc(F)cn1)c1ccccc1S2` [drawing 711], the IC50 under setting [1] is 7.94 nM. In addition, the Emax under setting [2] turned out to be 113%.
As to `COc1ccc(C2=Nc3cc(C(=O)NCc4cccnc4)ccc3Sc3ccccc32)cc1` [drawing 712], the IC50 under setting [1] is 79.4 nM. Moreover, under setting [2], the Emax was determined as 106%.
Regarding `CCN(CCNC(=O)c1ccc2c(c1)N=C(c1cccc(Cl)c1)c1ccccc1S2)c1ccccc1` [drawing 713], the Emax under setting [2] worked out at 97%. For the setting “pIC50, Appendix A”, this compound gave an IC50 of 7.94 nM.
In the case of `O=C(NCc1ccc(F)cc1)c1ccc2c(c1)N=C(c1cccc(Cl)c1)c1ccccc1S2` [drawing 715], the Emax under setting [2] was found to be 97%. For the same compound, the IC50 (pIC50, Appendix A) was 7.94 nM.
Turning to `O=C(NCc1ccncc1)c1ccc2c(c1)N=C(c1ccc(F)cc1)c1ccccc1S2` [drawing 716], the IC50 under setting [1] was 79.4 nM. Moreover, under setting [2], the Emax is 101%.
For the compound `O=C(NCc1ccccc1)c1ccc2c(c1)N=C(c1cccc(Cl)c1)c1ccccc1S2` [drawing 717], the IC50 under setting [1] is 7.94 nM. The Emax under setting [2] is 106%.
Taken in the same sequence, the figures for `CCCCNC(=O)c1ccc2c(c1)N=C(c1cccc(F)c1)c1ccccc1S2` [drawing 719] were 7.94 nM and 113%.
In the case of `O=C(NC1CCCC1)c1ccc2c(c1)N=C(c1ccc(F)cc1)c1ccccc1S2` [drawing 720], the Emax under setting [2] came out at 117%. The same compound had an IC50 (pIC50, Appendix A) of 79.4 nM.
Consider `O=C(NN1CCCCCC1)c1ccc2c(c1)N=C(c1cccc(Cl)c1)c1ccccc1S2` [drawing 721], for which, under setting [1], the IC50 was 7.94 nM. Besides, where the note is “Appendix A”, the “% Inhibition” value was 105%.
In the case of `O=C(NN1CCCCC1)c1ccc2c(c1)N=C(c1cccc(Br)c1)c1ccccc1S2` [drawing 723], the Emax under setting [2] is 92%. Besides, for the setting “pIC50, Appendix A”, the IC50 is 7.94 nM.
As to `C[C@@H]1CCC[C@H](C)N1NC(=O)c1ccc2c(c1)N=C(c1cccc(F)c1)c1ccccc1S2` [drawing 727], the IC50 under setting [1] was 7.94 nM. The Emax under setting [2] came to 120%.
For `COc1ccc(C2=Nc3cc(C(=O)NCc4ccncc4)ccc3Sc3ccccc32)cc1` [drawing 728], in that order: 79.4 nM and 105%.
On to `CC(CNC(=O)c1ccc2c(c1)N=C(c1ccccc1)c1ccccc1S2)c1ccccc1` (stereo not shown) [drawing 729], for which the IC50 under setting [1] was 7.94 nM. Besides, the Emax under setting [2] is 101%.
For `COc1ccc(C2=Nc3cc(C(=O)NN4[C@H](C)CCC[C@@H]4C)ccc3Sc3ccccc32)cc1` [drawing 730], in that order: 79.4 nM and 99%.
For `O=C(NCCc1ccccc1)c1ccc2c(c1)N=C(c1cccc(Cl)c1)c1ccccc1S2` [drawing 731], the Emax under setting [2] came out at 104%. The IC50 (pIC50, Appendix A) is 7.94 nM.
As for `Cc1csc(CNC(=O)c2ccc3c(c2)N=C(c2ccc(F)cc2)c2ccccc2S3)c1` [drawing 732], the IC50 under setting [1] was 79.4 nM. Under setting [2], the Emax came to 80%.
For `O=C(NCCc1ccc(Cl)cc1)c1ccc2c(c1)N=C(c1ccccc1)c1ccccc1S2` [drawing 733], the IC50 under setting [1] is 7.94 nM. In addition, the Emax under setting [2] was determined as 108%.
Taken in the same sequence, the figures for `O=C(NCCc1ccccn1)c1ccc2c(c1)N=C(c1ccc(Br)cc1)c1ccccc1S2` [drawing 734] were 79.4 nM and 89%.
Take `CCCC1=Nc2cc(C(=O)NCC(C)c3ccccc3)ccc2Sc2ccccc21` (stereo not shown) [drawing 735]: the IC50 under setting [1] was 7.94 nM. Also, the Emax under setting [2] was determined as 104%.
